Experimental data as given in ChEMBL document CHEMBL1201862, “PubChem BioAssay data set” (2004).
Activity calls are given as the source filed them.

Columns and labels:
[1] = molecular target: T1, Small ubiquitin-related modifier 1 (Homo sapiens, UniProt P63165); experiment: SUMO1 protein interaction blockers, potency – biochemical, fluorescence polarization, uHTS hits, dose response (AID 624382); format: functional; conditions: read-out: IC50_Mean
[2] = system: HeLa; experiment: viability loss in HeLa cells – cell-based, 24 h, cherry-picked samples, cytotoxicity control, dose response (AID 504726); format: functional; conditions: Homo sapiens;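 further: potency for cytotoxicity as loss of luminescence signal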
[3] = molecular target: Eukaryotic translation initiation factor 4E (Mus musculus, UniProt P63073); experiment: blockers of eIF4G binding by eIF4E – biochemical, TR-FRET, dose response (AID 855); format: functional;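 further: potency for disrupting eIF4E binding to eIF4GI seen as loss of FRET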
[4] = molecular target: T2, Small ubiquitin-related modifier 2 (Homo sapiens, UniProt P61956); experiment: SUMO2 binding disruption by SUMO1 hits – biochemical, FRET, human SUMO2, uHTS hits, selectivity assay for SUMO1 interaction inhibitor project, dose response (AID 624384); format: functional; conditions: read-out: IC50_Mean
[5] = molecular target: Keap1/Nrf2 (Homo sapiens, UniProt Q14145); experiment: disruptors of Keap1 binding to Nrf2 peptide – biochemical, fluorescence polarization, cherry-picked samples, dose response (AID 588683)
[6] = molecular target: T1, Small ubiquitin-related modifier 1; experiment: SUMO1 protein-protein binding blockers, potency – biochemical, FRET, dose response (AID 624383); format: functional; conditions: read-out: IC50_Mean
[7] = molecular target: T3, ORF 73 (Human herpesvirus 8, UniProt O40947); experiment: KSHV LANA DNA-binding disruption – biochemical, fluorescence polarization, cherry-picked samples, dose response (AID 504725); set-up: species or system Human gammaherpesvirus 8;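 further: fluorescence polarization of a labeled DNA duplex reporting LANA DNA binding; potency is for inhibitors that block LANA binding to the DNA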
T3 sequence (O40947 whole entry): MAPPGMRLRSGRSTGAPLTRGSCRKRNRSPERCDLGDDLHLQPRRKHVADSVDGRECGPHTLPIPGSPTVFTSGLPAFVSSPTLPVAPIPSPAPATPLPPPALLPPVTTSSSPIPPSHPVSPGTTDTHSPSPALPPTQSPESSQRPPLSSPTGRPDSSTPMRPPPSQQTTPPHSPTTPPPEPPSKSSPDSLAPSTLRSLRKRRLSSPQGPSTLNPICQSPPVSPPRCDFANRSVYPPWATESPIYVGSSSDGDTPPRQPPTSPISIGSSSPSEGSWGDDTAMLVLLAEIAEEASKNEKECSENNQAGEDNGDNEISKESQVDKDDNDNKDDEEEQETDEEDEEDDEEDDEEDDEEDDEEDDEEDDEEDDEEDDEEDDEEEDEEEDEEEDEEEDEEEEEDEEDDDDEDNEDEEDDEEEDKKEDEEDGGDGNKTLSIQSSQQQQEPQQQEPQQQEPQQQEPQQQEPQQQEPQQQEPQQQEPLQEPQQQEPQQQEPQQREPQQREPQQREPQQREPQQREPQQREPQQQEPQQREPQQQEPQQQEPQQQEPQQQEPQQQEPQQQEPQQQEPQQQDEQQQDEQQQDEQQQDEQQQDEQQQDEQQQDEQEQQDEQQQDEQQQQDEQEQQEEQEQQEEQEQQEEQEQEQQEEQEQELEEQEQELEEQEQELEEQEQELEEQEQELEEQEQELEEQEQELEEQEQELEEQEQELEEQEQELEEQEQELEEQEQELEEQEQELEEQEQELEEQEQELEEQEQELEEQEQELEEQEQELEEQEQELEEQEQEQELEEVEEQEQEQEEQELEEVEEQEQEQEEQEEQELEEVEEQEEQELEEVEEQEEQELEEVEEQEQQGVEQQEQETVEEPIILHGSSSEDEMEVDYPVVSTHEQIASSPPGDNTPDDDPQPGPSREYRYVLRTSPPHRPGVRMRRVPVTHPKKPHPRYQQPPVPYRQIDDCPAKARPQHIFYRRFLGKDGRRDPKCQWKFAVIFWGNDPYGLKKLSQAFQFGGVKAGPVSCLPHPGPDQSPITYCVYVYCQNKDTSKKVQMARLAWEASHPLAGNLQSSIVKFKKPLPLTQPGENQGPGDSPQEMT

[8] = molecular target: T2, Small ubiquitin-related modifier 2; experiment: disruption of SUMO2 interaction with SIM peptide – biochemical, fluorescence polarization, uHTS hits, selectivity assay for SUMO1 interaction inhibitor project, dose response (AID 624385); format: functional; conditions: read-out: IC50_Mean
[9] = molecular target: T4, Insulin-degrading enzyme (Homo sapiens, UniProt P14735); experiment: recombinant IDE activation, cell-free – biochemical, fluorescence polarization, counter-screen for IDE activator project, dose response (AID 588681)
T4 sequence (P14735 whole entry): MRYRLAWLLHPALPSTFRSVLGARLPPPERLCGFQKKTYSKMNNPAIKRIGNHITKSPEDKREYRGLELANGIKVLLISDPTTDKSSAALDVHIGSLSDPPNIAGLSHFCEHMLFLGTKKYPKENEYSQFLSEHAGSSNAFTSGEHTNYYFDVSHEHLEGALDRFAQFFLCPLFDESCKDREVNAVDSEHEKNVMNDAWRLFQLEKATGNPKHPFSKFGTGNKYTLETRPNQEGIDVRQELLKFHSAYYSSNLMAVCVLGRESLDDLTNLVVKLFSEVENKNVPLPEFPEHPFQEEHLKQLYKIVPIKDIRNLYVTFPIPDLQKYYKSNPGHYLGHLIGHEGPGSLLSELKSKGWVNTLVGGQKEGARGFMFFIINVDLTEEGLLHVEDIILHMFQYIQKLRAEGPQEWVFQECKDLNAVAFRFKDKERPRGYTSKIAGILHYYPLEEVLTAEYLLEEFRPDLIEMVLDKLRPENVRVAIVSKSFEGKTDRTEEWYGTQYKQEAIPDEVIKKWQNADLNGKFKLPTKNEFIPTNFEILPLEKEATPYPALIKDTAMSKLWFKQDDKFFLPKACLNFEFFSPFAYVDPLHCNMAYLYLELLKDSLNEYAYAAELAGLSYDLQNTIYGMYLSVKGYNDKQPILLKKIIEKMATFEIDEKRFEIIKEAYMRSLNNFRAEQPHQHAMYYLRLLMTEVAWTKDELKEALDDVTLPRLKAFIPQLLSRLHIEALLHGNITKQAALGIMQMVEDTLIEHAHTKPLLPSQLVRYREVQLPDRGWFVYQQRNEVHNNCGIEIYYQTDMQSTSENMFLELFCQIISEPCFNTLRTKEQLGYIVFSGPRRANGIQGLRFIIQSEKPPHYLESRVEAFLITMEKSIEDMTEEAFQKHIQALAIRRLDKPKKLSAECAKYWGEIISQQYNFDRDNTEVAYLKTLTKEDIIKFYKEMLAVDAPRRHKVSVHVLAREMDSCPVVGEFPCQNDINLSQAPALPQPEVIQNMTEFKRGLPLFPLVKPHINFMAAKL

[10] = molecular target: T4, Insulin-degrading enzyme; experiment: cellular IDE activation of Abeta substrate cleavage – fluorescence polarization, HEK cells, dose response (AID 588439); format: functional, cell-based
[11] = molecular target: T5, Caspase-6 (Homo sapiens, UniProt P55212); experiment: inhibition of CASP6 peptide cleavage – biochemical, VEID-R110 fluorescence, cherry-pick, dose response (AID 720632)
T5 sequence (P55212 whole entry): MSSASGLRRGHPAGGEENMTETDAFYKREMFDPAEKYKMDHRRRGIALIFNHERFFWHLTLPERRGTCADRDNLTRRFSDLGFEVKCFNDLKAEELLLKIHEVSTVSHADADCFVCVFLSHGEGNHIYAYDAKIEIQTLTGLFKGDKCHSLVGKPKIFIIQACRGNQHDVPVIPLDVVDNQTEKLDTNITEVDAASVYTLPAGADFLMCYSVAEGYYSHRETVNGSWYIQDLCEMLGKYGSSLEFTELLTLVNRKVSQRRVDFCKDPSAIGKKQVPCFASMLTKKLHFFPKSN

[12] = system: HEK293; experiment: membrane integrity loss in HEK cells – cell-based, fluorescence, cytotoxicity control for IDE activator project, dose response (AID 588440); format: functional; conditions: Homo sapiens;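 further: cytotoxicity by LDH release measuring loss of membrane integrity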
[13] = system: HEK293; experiment: optical interference in Abeta FP readout, dose response, artefact control for IDE activator project, biochemical, fluorescence polarization (AID 588442); format: functional, cell-based; conditions: Homo sapiens
[14] = molecular target: T6, DNA repair protein RAD52 homolog (Homo sapiens, UniProt P43351); format: functional, biochemical
T6 sequence (P43351 whole entry): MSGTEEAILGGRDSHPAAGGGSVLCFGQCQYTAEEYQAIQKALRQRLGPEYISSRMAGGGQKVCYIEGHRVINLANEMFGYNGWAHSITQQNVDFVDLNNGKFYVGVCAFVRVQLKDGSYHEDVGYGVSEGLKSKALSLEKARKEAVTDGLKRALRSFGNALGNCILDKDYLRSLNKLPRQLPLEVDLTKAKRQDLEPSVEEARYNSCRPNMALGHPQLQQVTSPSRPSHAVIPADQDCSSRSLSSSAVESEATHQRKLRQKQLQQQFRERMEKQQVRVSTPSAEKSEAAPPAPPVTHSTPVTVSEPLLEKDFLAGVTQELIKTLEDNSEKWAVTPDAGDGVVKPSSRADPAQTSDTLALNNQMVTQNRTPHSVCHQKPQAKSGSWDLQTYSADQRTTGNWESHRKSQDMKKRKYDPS

[15] = acridine orange displacement from DNA – biochemical, fluorescence polarization, cherry-pick, artefact control for RAD54 inhibitor project, dose response (AID 651673); format: functional
[16] = system: Vero; experiment: cells; format: functional, Chlorocebus sabaeus; conditions: Chlorocebus sabaeus, Vero
[17] = molecular target: T7, Sentrin-specific protease 1 (Homo sapiens, UniProt Q9P0U3); experiment: Dose response confirmation of small molecule inhibitors of the catalytic domain of the SUMO protease, SENP1 in a FRET assay.; format: functional; conditions: read-out: IC50_Mean
T7 sequence (Q9P0U3 whole entry): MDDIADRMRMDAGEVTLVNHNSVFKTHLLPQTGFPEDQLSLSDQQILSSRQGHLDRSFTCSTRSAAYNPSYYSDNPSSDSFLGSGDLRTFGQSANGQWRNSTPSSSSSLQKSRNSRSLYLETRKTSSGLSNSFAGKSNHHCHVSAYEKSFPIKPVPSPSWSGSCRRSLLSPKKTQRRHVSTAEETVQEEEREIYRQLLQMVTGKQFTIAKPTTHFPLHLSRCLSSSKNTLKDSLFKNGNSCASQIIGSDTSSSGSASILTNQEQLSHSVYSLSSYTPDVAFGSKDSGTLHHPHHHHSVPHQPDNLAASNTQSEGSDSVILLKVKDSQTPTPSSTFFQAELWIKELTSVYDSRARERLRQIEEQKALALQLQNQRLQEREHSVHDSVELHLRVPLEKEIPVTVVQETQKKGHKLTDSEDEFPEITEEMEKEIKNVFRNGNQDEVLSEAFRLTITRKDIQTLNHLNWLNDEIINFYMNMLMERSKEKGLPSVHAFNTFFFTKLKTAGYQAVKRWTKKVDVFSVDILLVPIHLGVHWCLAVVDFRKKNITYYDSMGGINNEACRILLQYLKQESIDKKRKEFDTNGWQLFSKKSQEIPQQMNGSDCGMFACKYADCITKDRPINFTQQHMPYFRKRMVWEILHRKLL

[18] = molecular target: T7, Sentrin-specific protease 1; experiment: SENP1 catalytic domain blockers, concentration series – biochemical, kinetic FRET, dose response (AID 651697); format: functional; conditions: read-out: IC50_Mean
[19] = molecular target: T8, DNA repair and recombination protein RAD54-like (Homo sapiens, UniProt Q92698); experiment: RAD54 Holliday junction migration blockers – biochemical, fluorescence, cherry-picked samples, dose series, confirmation (AID 651657); format: functional
T8 sequence (Q92698 whole entry): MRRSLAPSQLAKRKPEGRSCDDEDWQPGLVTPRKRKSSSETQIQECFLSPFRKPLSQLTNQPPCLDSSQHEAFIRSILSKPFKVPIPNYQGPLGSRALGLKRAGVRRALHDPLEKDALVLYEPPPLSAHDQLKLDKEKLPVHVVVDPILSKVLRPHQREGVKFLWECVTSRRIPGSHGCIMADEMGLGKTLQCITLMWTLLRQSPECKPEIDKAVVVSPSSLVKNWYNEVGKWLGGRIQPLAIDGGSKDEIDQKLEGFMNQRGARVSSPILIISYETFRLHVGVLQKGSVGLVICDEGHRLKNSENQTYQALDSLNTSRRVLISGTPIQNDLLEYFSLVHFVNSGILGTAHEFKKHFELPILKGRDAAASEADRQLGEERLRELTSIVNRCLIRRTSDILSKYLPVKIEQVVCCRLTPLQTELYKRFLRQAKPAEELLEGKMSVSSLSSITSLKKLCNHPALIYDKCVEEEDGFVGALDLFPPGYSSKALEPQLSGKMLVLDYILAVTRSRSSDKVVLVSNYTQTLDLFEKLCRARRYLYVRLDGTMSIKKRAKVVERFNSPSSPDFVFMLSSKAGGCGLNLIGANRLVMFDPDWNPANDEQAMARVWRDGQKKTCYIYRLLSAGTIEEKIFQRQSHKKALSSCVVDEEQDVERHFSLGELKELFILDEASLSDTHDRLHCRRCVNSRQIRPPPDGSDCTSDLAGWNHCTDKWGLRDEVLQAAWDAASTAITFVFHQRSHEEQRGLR

[20] = Counterscreen for activators of the function of SWI/SNF related, matrix associated, actin dependent regulator of chromatin, subfamily a, member 2 (SMARCA2, BRM): Luminescence-based cell-based high throughput dose response assay to identify non-selective compounds using the VP16 reporter assay.; format: functional
[21] = molecular target: SWI/SNF-related matrix-associated actin-dependent regulator of chromatin subfamily A member 2 (Homo sapiens, UniProt P51531); experiment: Luminescence-based cell-based high throughput dose response assay to identify activators of the function of SWI/SNF related, matrix associated, actin dependent regulator of chromatin, subfamily a, member 2 (SMARCA2, BRM).; format: functional
Sequence of SWI/SNF-related matrix-associated actin-dependent regulator of chromatin subfamily A member 2 (P51531 whole entry): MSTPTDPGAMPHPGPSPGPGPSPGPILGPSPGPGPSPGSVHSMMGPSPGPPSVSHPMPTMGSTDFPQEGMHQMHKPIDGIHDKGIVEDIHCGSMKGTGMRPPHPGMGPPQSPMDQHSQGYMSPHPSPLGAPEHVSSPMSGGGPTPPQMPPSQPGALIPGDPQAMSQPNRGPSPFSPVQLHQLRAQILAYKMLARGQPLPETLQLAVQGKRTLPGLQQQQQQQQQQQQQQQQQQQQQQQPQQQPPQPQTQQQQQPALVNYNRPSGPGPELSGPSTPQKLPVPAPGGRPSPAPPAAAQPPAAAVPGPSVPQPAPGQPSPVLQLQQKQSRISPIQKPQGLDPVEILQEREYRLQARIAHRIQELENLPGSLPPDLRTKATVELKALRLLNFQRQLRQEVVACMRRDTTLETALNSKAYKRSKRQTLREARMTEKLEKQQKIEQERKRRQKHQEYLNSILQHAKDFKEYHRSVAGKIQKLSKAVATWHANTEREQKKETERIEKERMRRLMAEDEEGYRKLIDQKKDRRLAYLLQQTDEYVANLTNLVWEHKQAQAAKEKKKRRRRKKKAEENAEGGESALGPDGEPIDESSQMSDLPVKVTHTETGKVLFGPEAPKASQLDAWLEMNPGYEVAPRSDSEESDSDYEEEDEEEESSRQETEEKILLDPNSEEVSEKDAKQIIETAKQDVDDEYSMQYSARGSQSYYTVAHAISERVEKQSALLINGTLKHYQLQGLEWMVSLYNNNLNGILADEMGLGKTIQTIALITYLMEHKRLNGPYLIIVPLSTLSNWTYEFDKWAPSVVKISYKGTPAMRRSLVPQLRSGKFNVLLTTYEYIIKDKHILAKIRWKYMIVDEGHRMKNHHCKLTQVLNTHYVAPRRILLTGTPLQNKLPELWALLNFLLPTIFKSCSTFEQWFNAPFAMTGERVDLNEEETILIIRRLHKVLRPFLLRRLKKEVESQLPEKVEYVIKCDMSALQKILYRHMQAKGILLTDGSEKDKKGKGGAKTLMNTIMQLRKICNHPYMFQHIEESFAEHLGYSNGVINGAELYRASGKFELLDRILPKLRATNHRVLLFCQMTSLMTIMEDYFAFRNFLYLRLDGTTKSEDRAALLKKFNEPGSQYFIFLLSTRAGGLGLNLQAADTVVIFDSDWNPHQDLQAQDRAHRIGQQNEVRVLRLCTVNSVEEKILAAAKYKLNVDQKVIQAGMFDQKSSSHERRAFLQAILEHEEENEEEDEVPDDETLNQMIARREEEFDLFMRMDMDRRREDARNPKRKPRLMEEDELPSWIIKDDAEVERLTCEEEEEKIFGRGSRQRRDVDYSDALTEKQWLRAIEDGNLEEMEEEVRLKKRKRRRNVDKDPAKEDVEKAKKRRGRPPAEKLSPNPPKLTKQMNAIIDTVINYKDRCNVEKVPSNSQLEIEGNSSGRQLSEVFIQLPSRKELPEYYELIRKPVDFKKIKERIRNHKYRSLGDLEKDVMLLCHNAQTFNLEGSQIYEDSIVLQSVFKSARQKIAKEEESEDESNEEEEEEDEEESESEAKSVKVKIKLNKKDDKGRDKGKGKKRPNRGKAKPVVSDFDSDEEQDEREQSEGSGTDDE

T2 sequence (P61956 whole entry): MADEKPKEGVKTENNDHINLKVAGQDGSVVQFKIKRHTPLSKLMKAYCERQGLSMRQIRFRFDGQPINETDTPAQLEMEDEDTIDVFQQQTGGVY
T1 sequence (P63165 whole entry): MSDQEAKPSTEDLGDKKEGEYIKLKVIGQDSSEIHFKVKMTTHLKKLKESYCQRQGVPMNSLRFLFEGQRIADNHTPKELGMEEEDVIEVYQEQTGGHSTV
Sequence of Keap1/Nrf2 (Q16236 whole entry): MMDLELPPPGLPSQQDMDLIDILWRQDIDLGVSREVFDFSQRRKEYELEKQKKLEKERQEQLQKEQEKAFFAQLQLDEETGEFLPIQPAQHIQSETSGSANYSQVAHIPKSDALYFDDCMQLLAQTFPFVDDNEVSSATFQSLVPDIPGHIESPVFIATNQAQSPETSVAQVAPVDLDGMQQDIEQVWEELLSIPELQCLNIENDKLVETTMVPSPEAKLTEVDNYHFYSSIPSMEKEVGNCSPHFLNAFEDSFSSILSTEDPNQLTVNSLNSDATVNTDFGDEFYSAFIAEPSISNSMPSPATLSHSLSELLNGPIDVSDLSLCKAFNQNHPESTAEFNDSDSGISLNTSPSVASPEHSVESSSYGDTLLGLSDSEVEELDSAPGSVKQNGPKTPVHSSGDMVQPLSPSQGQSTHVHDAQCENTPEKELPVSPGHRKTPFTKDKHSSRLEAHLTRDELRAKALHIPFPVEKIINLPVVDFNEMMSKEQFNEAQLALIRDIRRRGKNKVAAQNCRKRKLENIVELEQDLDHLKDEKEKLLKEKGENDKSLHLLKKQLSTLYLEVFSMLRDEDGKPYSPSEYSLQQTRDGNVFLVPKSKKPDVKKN
Sequence of Keap1/Nrf2 (Q14145 whole entry): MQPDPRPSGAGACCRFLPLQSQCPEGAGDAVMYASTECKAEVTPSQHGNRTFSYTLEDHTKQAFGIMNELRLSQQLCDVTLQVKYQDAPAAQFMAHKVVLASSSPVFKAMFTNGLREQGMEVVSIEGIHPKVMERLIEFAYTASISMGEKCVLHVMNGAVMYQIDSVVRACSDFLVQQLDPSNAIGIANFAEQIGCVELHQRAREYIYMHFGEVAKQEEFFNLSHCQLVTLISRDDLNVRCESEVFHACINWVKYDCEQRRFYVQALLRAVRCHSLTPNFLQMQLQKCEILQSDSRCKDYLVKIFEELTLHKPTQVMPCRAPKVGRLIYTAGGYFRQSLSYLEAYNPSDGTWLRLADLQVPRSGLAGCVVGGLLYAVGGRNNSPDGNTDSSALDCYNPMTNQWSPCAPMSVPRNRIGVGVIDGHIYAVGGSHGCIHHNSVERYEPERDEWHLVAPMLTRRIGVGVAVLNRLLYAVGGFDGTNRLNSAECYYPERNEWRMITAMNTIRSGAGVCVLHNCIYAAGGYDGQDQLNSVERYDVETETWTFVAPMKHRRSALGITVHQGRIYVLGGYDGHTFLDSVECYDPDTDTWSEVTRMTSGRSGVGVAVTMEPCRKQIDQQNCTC
Sequence of Eukaryotic translation initiation factor 4E (P63073 whole entry): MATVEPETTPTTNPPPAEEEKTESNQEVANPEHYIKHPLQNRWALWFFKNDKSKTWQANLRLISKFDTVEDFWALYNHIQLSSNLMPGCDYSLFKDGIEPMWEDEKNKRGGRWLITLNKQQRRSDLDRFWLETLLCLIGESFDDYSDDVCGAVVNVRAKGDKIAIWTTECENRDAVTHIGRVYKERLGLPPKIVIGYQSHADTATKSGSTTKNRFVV

Structure (SMILES): Cc1cc2nc3c(=O)[nH]c(=O)[nH]c3nc2c([N+](=O)[O-])c1N
- IC50 [1]: 2.33 µM (active)
- AC50 [2]: 150 µM (active)
- IC50 [3]: 50 µM (inactive)
- IC50 [4]: > 66 µM (inactive)
- AC50 [5]: 1.78 µM (active)
- IC50 [6]: 51.7 µM (inactive)
- AC50 [7]: 3.99 µM (active)
- IC50 [8]: 2.48 µM (active)
- EC50 [9]: > 54.7 µM (inactive)
- EC50 [10]: > 54.7 µM (inactive)
- AC50 [11]: 4.58 µM (active)
- IC50 [12]: > 89.3 µM (inactive)
- EC50 [13]: 32.1 µM (inactive)

Structure (SMILES): CCN(CC)CCNc1ccc(CO)c2oc3cc(Cl)ccc3c(=O)c12
- AC50 [14]: 12.5 µM (active)
- AC50 [15]: 63.1 µM (active)
- CC50 [16]: 16.7 µM (active)
- IC50 [17]: 24 µM (inactive)
- IC50 [18]: 19.8 µM (active)
- AC50 [19]: 10.2 µM (active)
- EC50 [20]: > 91.2 µM (inactive)
- EC50 [21]: > 91.2 µM (inactive)
